Test results taken from article PMC5712521, “Dendrogenin A drives LXR to trigger lethal autophagy in cancers” (Nature Communications, 2017).

Tests used:
SKMEL-28 cells [1] = test: RT-qPCR of LXR-responsive genes; assay type: cell-based, human; details: 8 h, 2.5 µM DDA, 10 µM 22(R)HC, 1 µM GW, 100 nM TO, vs vehicle
Protocol: Total RNA was extracted from tumor cells or MEFs using an RNA Extraction kit (Qiagen) or Trizol (Invitrogen), respectively, and was quantified with NanoDrop. Complementary DNA (cDNA) synthesis was performed with 1 μg RNA iScript Reverse Transcriptase (Bio-Rad). 25 ng cDNA was amplified using SyBR Supermix (Bio-Rad). RNA expression of the different genes of interest (Supplementary Tables 1, 2) were determined using the ΔΔCT method, where the difference in the threshold cycle (ΔCT) values of the target gene and the housekeeping gene for each sample was normalized to the ΔCT value of the untreated sample.
Supplementary Fig. 4. a R egulat ion of LXR-responsive genes b y D DA and other k nown LXR
ligands in B16F10 and SKMEL- 28 cells transfected with s iRN A targeting LXRβ ( siLXRβ) or
with contro l siRN A scram ble (siSC). Cells were treated for 8 h with either solvent vehicle, 2.5
µM DD A, 10 µM 22(R) hydrox ycholesterol (22(R)HC), 1 µM GW 3965 (GW ) or 100 nM
T O901317 (T O). […]

SKMEL-28 cells [2] = test: Sterol analysis by GC/MS; assay type: cell-based, human; details: SKMEL-28, 24 h; 10 µM 22(R)HC, 1 µM GW, 100 nM TO; GC/MS
Protocol: (§1) Sterols in cell homogenates were extracted with a solvent mixture containing chloroform/methanol 2/1 (v/v) spiked with epicoprostanol as the internal standard. Lipids were partitioned in chloroform after the addition of saline and saponified by methanolic potassium hydroxide (0.5 N, 60 °C, 15 min). The fatty acids released were methylated with BF3-methanol (12%, 60 °C, 15 min) to not interfere with the chromatography of sterols. The sterols were re-extracted in hexane and silylated, as described previously. The trimethylsilylether derivatives of the sterols were separated by gas chromatography (GC) (Hewlett–Packard 6890 series) in a medium polarity capillary column RTX-65, (65% diphenyl 35% dimethyl polysiloxane, length 30 m, diameter 0.32 mm, film thickness 0.25 μm (Restesk, Evry, France)). The mass spectrometer (Agilent 5975 inert XL) in series with the GC was set up for the detection of positive ions. Ions were produced in the electron impact mode at 70 eV. Sterols were identified by the fragmentogram in the scanning mode and quantified by selective monitoring of the specific ions after normalization with the internal standard epicoprostanol and calibration with weighed standards. […]
Quantification of sterols ac cum ulation in SKMEL- 2 8 c ells either expressing LXRβ (shCT L) or with LXRβ (sh3 or sh4LXR β) k nock ed down after 24 h treatm ent with 2.5 µ M DD A or solvent vehicle. Anal yses were perform ed by GC/MS. f Quantification of sterols accumulated in m elanom a cells after 24 h treatm ent with 10 µM 22(R) HC, 1 µ M GW , 100 nM T O or solvent […]
(§2) vehicle. […]

SKMEL-28 cells [3] = test: Immunoblot densitometry (LC3-II); assay type: cell-based, human; details: SKMEL-28, 24 h; 2.5 µM DDA, 10 µM 22(R)HC, 100 nM TO
Protocol: Immunoblotting was carried out as described previously. Proteins were separated on SDS-PAGE gels, electro-transferred onto polyvinylidene difluoride membranes and incubated overnight at 4 °C with the following antibodies: anti-Atg3, anti-Atg5 (D1G9), anti-Atg7 (D12B11), anti-Beclin (D40C5), anti-caspase-3 (Cell Signaling), anti-Bcl-2 (Millipore), anti-Bax (Millipore), anti-LC3 (Sigma-Aldrich), anti-LXRα (SantaCruz), anti-LXRβ (SantaCruz), anti-Nur77 (Active motif), anti-NOR1 (R&D systems), anti-PARP (Cell Signaling), anti-Vps34 (Cell Signaling), or anti-Actin (Millipore). For visualization, an ECL plus kit (Amersham Biosciences) was used, and chemiluminescence was measured by autoradiography (Supplementary Fig. 9). Specific bands were quantified with ImageQuant software.

B16F10 cells [4] = test: Sterol analysis by GC/MS; assay type: cell-based, mouse; details: B16F10, 24 h, 10 µM 22(R)HC, 1 µM GW, 100 nM TO
Protocol: as §1
Anal yses were perform ed by GC/MS. f Quantification of sterols accumulated in
m elanom a cells after 24 h treatm ent with 10 µM 22(R) HC, 1 µ M GW , 100 nM T O or solvent
as §2

B16F10 cells [5] = test: DDA-induced cytotoxicity (cell death); assay type: cell-based; details: B16F10; 5 µM 22(R)HC, 0.5 µM TO, 1 µM GW
Protocol: (§3) Melanoma cells were seeded into 6-well plates at 60,000 cells per well and AML cells at 250,000 cells/ml. The cells were then treated with control solvent vehicle (1/1000 ethanol in water) or DDA. Where indicated, treated cells were incubated in the presence or absence of each inhibitor for time shown. Cell death was determined by the trypan blue exclusion assay. Cells were scraped and resuspended in trypan blue solution (0.25% (w/v) in PBS) and counted in a Malassez cell under light microscopy. Cell viability was then quantified by counting viable (trypan blue-negative) and dead cells (trypan blue-positive).
(§4) Supplementary Fig. 1. a DDA inhibited m elanom a colony form ation. Melanom a cells were […]
(§5) a 0.5% solution of crystal violet in water and analyzed by microscopy. Images are representative of 5 independent experiments. b Evaluation of DDA-induced cytotoxicity (cytotox) and clonogenicity (clono) inhibition in a subset of human (H) and mouse (M) m elanom a cell lines. T he BRaf status in m elanom a cells lines is shown. […]

SKMEL-28 cells [6] = test: DDA-induced cytotoxicity (cell death); assay type: cell-based; details: SKMEL-28; 5 µM 22(R)HC, 0.5 µM TO, 1 µM GW
Protocol: as §3, §4, §5

`O=S(=O)(c1ccccc1)N(CC(F)(F)F)c1ccc(C(O)(C(F)(F)F)C(F)(F)F)cc1` [TO, TO901317] was tested, and the “ABCA1 mRNA” value (SKMEL-28 cells [1]; SKMEL-28, siCT) was 4.2±1.2 fold, the “ABCG1 mRNA” value (SKMEL-28 cells [1]; SKMEL-28, siCT) was 2.8±0.5 fold and the “ABCG5 mRNA” value (SKMEL-28 cells [1]; SKMEL-28, siCT) was 3.1±0.5 fold. The “ABCG8 mRNA” value (SKMEL-28 cells [1]; SKMEL-28, siCT) was 1.5±0.1 fold, the “LC3A mRNA” value (SKMEL-28 cells [1]; SKMEL-28, siCT) was 0.8±0.1 fold and the “LC3B mRNA” value (SKMEL-28 cells [1]; SKMEL-28, siCT) was 0.9±0.2 fold. For the same compound, the “LDLR mRNA” value (SKMEL-28 cells [1]; SKMEL-28, siCT) was 1.0±0.2 fold, the “NOR1 mRNA” value (SKMEL-28 cells [1]; SKMEL-28, siCT) was 1.7±0.1 fold and the “Nur77 mRNA” value (SKMEL-28 cells [1]; SKMEL-28, siCT) was 1.1±0.2 fold. For the same compound, the “SCD1 mRNA” value (SKMEL-28 cells [1]; SKMEL-28, siCT) was 1.8±0.2 fold, the “SREBP1 mRNA” value (SKMEL-28 cells [1]; SKMEL-28, siCT) was 1.8±0.3 fold and the “SULT2B1b mRNA” value (SKMEL-28 cells [1]; SKMEL-28, siCT) was 1.8±0.2 fold. For the same compound, the “ABCA1 mRNA” value (SKMEL-28 cells [1]; SKMEL-28, siLXRβ) was 2.2±0.3 fold, the “ABCG1 mRNA” value (SKMEL-28 cells [1]; SKMEL-28, siLXRβ) was 1.1±0.2 fold and the “ABCG5 mRNA” value (SKMEL-28 cells [1]; SKMEL-28, siLXRβ) was 1.1±0.1 fold. The “ABCG8 mRNA” value (SKMEL-28 cells [1]; SKMEL-28, siLXRβ) was 0.8±0.1 fold, the “LC3A mRNA” value (SKMEL-28 cells [1]; SKMEL-28, siLXRβ) was 0.9±0.1 fold and the “LC3B mRNA” value (SKMEL-28 cells [1]; SKMEL-28, siLXRβ) was 0.9±0.1 fold. For the same compound, the “LDLR mRNA” value (SKMEL-28 cells [1]; SKMEL-28, siLXRβ) was 0.9±0.1 fold, the “NOR1 mRNA” value (SKMEL-28 cells [1]; SKMEL-28, siLXRβ) was 1.0±0.2 fold and the “Nur77 mRNA” value (SKMEL-28 cells [1]; SKMEL-28, siLXRβ) was 1.1±0.2 fold. For the same compound, the “SCD1 mRNA” value (SKMEL-28 cells [1]; SKMEL-28, siLXRβ) was 1.2±0.2 fold, the “SREBP1 mRNA” value (SKMEL-28 cells [1]; SKMEL-28, siLXRβ) was 1.3±0.2 fold and the “SULT2B1b mRNA” value (SKMEL-28 cells [1]; SKMEL-28, siLXRβ) was 1.3±0.2 fold. The “Sterol amount/total sterol: 8-DHC” value (SKMEL-28 cells [2]) was 0.04± 0.02, the “Sterol amount/total sterol: zymostenol” value (SKMEL-28 cells [2]) was 0.36± 0.08 and the “LC3-II protein, densitometry relative to control” value (SKMEL-28 cells [3]) was 0.9. For the same compound, the “Sterol amount/total sterol: 8-DHC” value (B16F10 cells [4]) was 0.04± 0.005, the “Sterol amount/total sterol: zymostenol” value (B16F10 cells [4]) was 0.12± 0.09 and the cell death (B16F10 cells [5]) was “no impact on cell death”. The cell death (SKMEL-28 cells [6]) was “no impact on cell death”.
